Laboratory results from US12157730B2, “Heteroaryl derivative, method for producing same, and pharmaceutical composition comprising same as effective component” (VORONOI INC., priority 2019, dated 2024).

target: T1, Ba/F3 cell EGFR Exon20 ins NPH (Homo sapiens, UniProt P00533, INS773NPH); experiment: Ba/F3 cell proliferation suppression, EGFR Exon20 ins NPH; type: cell-based; settings: GI50 class; Ba/F3 cell line with NPH inserted at Exon20 of EGFR; 72 hours
T1 construct: expressed in transfected cells; host or cells: Ba/F3
Summary of the method: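 72 h compound exposure, 0.3 nM–50 um (12 points, 3:1 dilution in DMSO); viability by CellTiter-Glo luminescence. Ba/F3 medium: RPMI-1640, 10% FBS, 5 ng/ml IL-3, 1 ug/ml puromycin for transduced cells. GI50 vs control, n=3.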

Ba/F3 (NPH) Activity | Compound
A (GI50 < 50 nM) | C=CC(=O)Nc1cc(Nc2cc(N3OCC[C@@H]3c3ccc(F)c(Cl)c3)ncn2)c(OC)cc1N1CCC(N2CCN(CC3CC3)CC2)CC1 [Example 94, N-(5-((6-((R)-3-(3-chloro-4-fluorophenyl)isoxazolidine-2-yl)pyrimidine-4-yl)amino)-2-(4-(4-(cyclopropylmethyl)piperazine-1-yl)piperidine-1-yl)-4-methoxyphenyl) acrylamide]
B (50 nM ≤ GI50 < 500 nM) | C=CC(=O)Nc1cc(Nc2cc(N3OCC[C@@H]3c3cccc(C#N)c3)ncn2)c(OC)cc1N1CCC(N2CCN(CC)CC2)CC1 [compound 399, N-(5-((6-((R)-3-(3-cyanophenyl)isoxazolidine-2-yl)pyrimidine-4-yl)amino)-2-(4-(4-ethylpiperazine-1-yl)piperidine-1-yl)-4-methoxyphenyl) acrylamide]
B (50 nM ≤ GI50 < 500 nM) | C=CC(=O)Nc1cc(Nc2cc(N3OCC[C@@H]3c3cccc(OC)c3)ncn2)c(OC)cc1N1CC[C@H](N2CCOCC2)C1 [compound 778, N-(4-methoxy-5-((6-((R)-3-(3-methoxyphenyl)isoxazolidine-2-yl)pyrimidine-4-yl)amino)-2-((S)-3-morpholinopyrolidine-1-yl)phenyl)acrylamide]
A (GI50 < 50 nM) | C=CC(=O)Nc1cc(Nc2cc(N3OCC[C@@H]3c3cccc(F)c3F)ncn2)c(OC)cc1N1CCN(C(C)C)CC1 [compound 334, N-(5-((6-((R)-3-(2,3-difluorophenyl)isoxazolidine-2-yl)pyrimidine-4-yl)amino)-2-(4-isopropylpiperazine-1-yl)-4-methoxyphenyl) acrylamide]
A (GI50 < 50 nM) | C=CC(=O)Nc1cc(Nc2cc(N3OCC[C@@H]3c3ccc(F)c(Cl)c3)ncn2)c(OC)cc1N1CCC(N2CC[C@@H](N(C)C)C2)CC1 [compound 769, N-(5-((6-((R)-3-(3-chloro-4-fluorophenyl)isoxazolidine-2-yl)pyrimidine-4-yl)amino)-2-(4-((R)-3-(dimethylamino)pyrolidine-1-yl)piperidine-1-yl)-4-methoxyphenyl) acrylamide]
A (GI50 < 50 nM) | C=CC(=O)Nc1cc(Nc2cc(N3OCC[C@@H]3c3cccc(C#N)c3)ncn2)c(OC)cc1N1CCC(N2CCOCC2)CC1 [compound 400, N-(5-((6-((R)-3-(3-cyanophenyl)isoxazolidine-2-yl)pyrimidine-4-yl)amino)-4-methoxy-2-(4-morpholinopiperidine-1-yl)phenyl)acrylamide]
B (50 nM ≤ GI50 < 500 nM) | C=CC(=O)Nc1cc(Nc2cc(N3OCC[C@@H]3c3cccc(Cl)c3Cl)ncn2)c(OC)cc1N1CCC(N(C)CCN(C)C)CC1 [compound 613, N-(5-((6-((R)-3-(2,3-dichlorophenyl)isoxazolidine-2-yl)pyrimidine-4-yl)amino)-2-(4-((2-(dimethylamino)ethyl) (methyl)aino)piperidine-1-yl)-4-methoxyphenyl) acrylamide]
A (GI50 < 50 nM) | C=CC(=O)Nc1cc(Nc2cc(N3OCC[C@@H]3c3cccc(Cl)c3)ncn2)c(OC)cc1N(C)CCN(C)C [compound 359, N-(5-((6-((R)-3-(3-chlorophenyl)isoxazolidine-2-yl)pyrimidine-4-yl)amino)-2-((2-(dimethylamino)ethyl)(methyl)amino)-4-methoxyphenyl) acrylamide]
A (GI50 < 50 nM) | C=CC(=O)Nc1cc(Nc2cc(N3OCC[C@@H]3c3cccc(F)c3F)ncn2)c(OC)cc1N1CCN(C)[C@@H](C)C1 [compound 883, N-(5-((6-((R)-3-(2,3-difluorophenyl)isoxazolidine-2-yl)pyrimidine-4-yl)amino)-2-((S)-3,4-dimethylpiperazine-1-yl)-4-methoxyphenyl) acrylamide]
A (GI50 < 50 nM) | C=CC(=O)Nc1cc(Nc2cc(N3OCC[C@@H]3c3ccc(F)c(Cl)c3)ncn2)c(OC)cc1N1C[C@@H]2C[C@H]1CO2 [compound 902, N-(2-((1S,4S)-2-oxa-5-azabicyclo [2.2.1]heptane-5-yl)-5-((6-((R)-3-(3-chloro-4-fluorophenyl)isoxazolidine-2-yl)pyrimidine-4-yl)amino)-4-methoxyphenyl) acrylamide]
A (GI50 < 50 nM) | C=CC(=O)Nc1cc(Nc2cc(N3OCC[C@@H]3c3cccc(Cl)c3F)ncn2)c(OC)cc1N1CCC(N2CCCN(C3CC3)CC2)CC1 [compound 358, N-(5-((6-((R)-3-(3-chloro-2-fluorophenyl)isoxazolidine-2-yl)pyrimidine-4-yl)amino)-2-(4-(4-cyclopropyl-1,4-diazepane-1-yl)piperidine-1-yl)-4-methoxyphenyl) acrylamide]
A (GI50 < 50 nM) | C=CC(=O)Nc1cc(Nc2cc(N3OCC[C@@H]3c3ccc(F)cc3)ncn2)c(OC)cc1N1CCC(N2CCC(N(C)C)CC2)CC1 [compound 870, N-(2-(4-(dimethylamino)-[1,4'-bipiperidine]-1'-yl)-5-((6-((R)-3-(4-fluorophenyl)isoxazolidine-2-yl)pyrimidine-4-yl)amino)-4-methoxyphenyl) acrylamide]
A (GI50 < 50 nM) | C=CC(=O)Nc1cc(Nc2cc(N3OCC[C@@H]3c3ccc(F)c(Cl)c3F)ncn2)c(OC)cc1N1CCC(N2C[C@H]3C[C@@H]2CO3)CC1 [compound 635, N-(2-(4-((1R,4R)-2-oxa-5-azabicyclo[2.2.1]heptane-5-yl)piperidine-1-yl)-5-((6-((R)-3-(3-chloro-2,4-difluorophenyl)isoxazolidine-2-yl)pyrimidine-4-yl)amino)-4-methoxyphenyl) acrylamide]
A (GI50 < 50 nM) | C=CC(=O)Nc1cc(Nc2cc(N3OCC[C@@H]3c3cc(F)ccc3F)ncn2)c(OC)cc1N1CCC(N2CCO[C@H](C)C2)CC1 [compound 822, N-(5-((6-((R)-3-(2,5-difluorophenyl)isoxazolidine-2-yl)pyrimidine-4-yl)amino)-4-methoxy-2-(4-((R)-2-methylmorpholino)piperidine-1-yl)phenyl) acrylamide]
A (GI50 < 50 nM) | C=CC(=O)Nc1cc(Nc2cc(N3OCC[C@@H]3c3ccc(F)c(Cl)c3F)ncn2)c(OC)cc1N1CCC(N(C)C)CC1 [compound 638, N-(5-((6-((R)-3-(3-chloro-2,4-difluorophenyl)isoxazolidine-2-yl)pyrimidine-4-yl)amino)-2-(4-(dimethylamino)piperidine-1-yl)-4-methoxyphenyl) acrylamide]
A (GI50 < 50 nM) | C=CC(=O)Nc1cc(Nc2cc(N3OCC[C@@H]3Cc3ccccc3)ncn2)c(OC)cc1N1CCN(C2CCOCC2)CC1 [compound 971, N-(5-((6-((S)-3-benzylisoxazolidine-2-yl)pyrimidine-4-yl)amino)-4-methoxy-2-(4-(tetrahydro-2H-pyran-4-yl)piperazine-1-yl)phenyl) acrylamide]
A (GI50 < 50 nM) | C=CC(=O)Nc1cc(Nc2cc(N3OCC[C@@H]3c3cc(F)cc(F)c3)ncn2)c(OC)cc1N1CCN(C)C[C@@H]1C [compound 919, N-(5-((6-((R)-3-(3,5-difluorophenyl)isoxazolidine-2-yl)pyrimidine-4-yl)amino)-2-((S)-2,4-dimethylpiperazine-1-yl)-4-methoxyphenyl) acrylamide]
A (GI50 < 50 nM) | C=CC(=O)Nc1cc(Nc2cc(N3OCC[C@@H]3c3ccc(F)cc3F)ncn2)c(OC)cc1N1CCN(C2CC2)C[C@@H]1C [compound 474, N-(2-((S)-4-cyclopropyl-2-methylpiperazine-(2,4-1-yl)-5-((6-((R)-3-difluorophenyl)isoxazolidine-2-yl)pyrimidine-4-yl)amino)-4-methoxyphenyl) acrylamide]
A (GI50 < 50 nM) | C=CC(=O)Nc1cc(Nc2cc(N3OCC[C@@H]3Cc3cccc(Cl)c3F)ncn2)c(OC)cc1N(C)CCN(C)C [compound 1016, N-(5-((6-((S)-3-(3-chloro-2-fluorobenzyl)isoxazolidine-2-yl)pyrimidine-4-yl)amino)-2-((2-(dimethylamino)ethyl)(methyl)amino)-4-methoxyphenyl) acrylamide]
B (50 nM ≤ GI50 < 500 nM) | C=CC(=O)Nc1cc(Nc2cc(N3OCC[C@@H]3c3ccc(Cl)c(F)c3)ncn2)c(OC)cc1N1CC[C@H](N2CCOCC2)C1 [compound 365, N-(5-((6-((R)-3-(4-chloro-3-fluorophenyl)isoxazolidine-2-yl)pyrimidine-4-yl)amino)-4-methoxy-2-((S)-3-morpholinopyrolidine-1-yl)phenyl) acrylamide]
A (GI50 < 50 nM) | C=CC(=O)Nc1cc(Nc2cc(N3OCC[C@@H]3c3ccc4ccccc4c3)ncn2)c(OC)cc1N(C)CCN(C)C [compound 511, N-(2-((2-(dimethylamino)ethyl)(methyl)amino)-4-methoxy-5-((6-((R)-3-(naphthalene-2-yl)isoxazolidine-2-yl)pyrimidine-4-yl)amino)phenyl)acrylamide]
A (GI50 < 50 nM) | C=CC(=O)Nc1cc(Nc2cc(N3OCC[C@@H]3c3ccc(F)c(Cl)c3)ncn2)c(OC)cc1N1CCN(CC)CC1 [compound 723, N-(5-((6-((R)-3-(3-chloro-4-fluorophenyl)isoxazolidine-2-yl)pyrimidine-4-yl)amino)-2-(4-ethylpiperazine-1-yl)-4-methoxyphenyl) acrylamide]

Compound | Ba/F3 (NPH) Activity
C=CC(=O)Nc1cc(Nc2cc(N3OCC[C@@H]3c3cccc(F)c3F)ncn2)c(OC)cc1N1CCC(N2CC3CCC(C2)N3C2CC2)CC1 [Example 135, N-(2-(4-(8-cyclopropyl-3,8-diazabicyclo[3.2.1]octan-3-yl)piperidine-1-yl)-5-((6-((R)-3-(2,3-difluorophenyl)isoxazolidine-2-yl)pyrimidine-4-yl)amino)-4-methoxyphenyl) acrylamide] | A (GI50 < 50 nM)
